From ChEMBL document CHEMBL5107993, “Design, synthesis and in vitro biological evaluation of marine phidianidine derivatives as potential anti-inflammatory agents” (Bioorg Med Chem, 2022) come the findings set out here.

Active and inactive are the calls of the source. No cut-off for these calls is given here.

A short description of experiment [1]: Inhibition of IL-17A production in PMA/ionomycin-stimulated mouse EL4 cells at 20 uM measured by ELISA relative to control. The class given is functional.
Experiment [2] is described as follows: Inhibition of IL-17A production in PMA/ionomycin-stimulated mouse EL4 cells at 10 uM measured by ELISA relative to control. The class given is functional. (In general: In an ELISA, binding on a coated surface is turned into a signal by an enzyme label.)
Experiment [3] relates to EL4. In words: Inhibition of IL-17A production in PMA/ionomycin-stimulated mouse EL4 cells at 2 to 10 uM measured […]. Conditions: dose 2-10 µM, DDE = dose-dependent effect. The class given is functional, cell-based.
Experiment [4] relates to EL4. The experiment in a line: Inhibition of IL-17A production in PMA/ionomycin-stimulated mouse EL4 cells at 2 to 10 uM measured by ELISA. The class given is functional, cell-based. Conditions: dose 2-10 µM, DDE = dose-dependent effect.
Experiment [5] deals with EL4. In words: Inhibition of IL-17A mRNA expression in PMA/ionomycin-stimulated mouse EL4 cells at 10 uM measured by qRT-PCR method. The class given is functional, cell-based. (In general: In qPCR the cycle at which signal appears reflects the starting amount.)
Experiment [6] is described as follows: Inhibition of IL-17A production in PMA/ionomycin-stimulated mouse EL4 cells measured by ELISA. The class given is functional, cell-based.
Experiment [7] relates to EL4. The experiment in a line: Inhibition of IL-17F mRNA expression in PMA/ionomycin-stimulated mouse EL4 cells at 10 uM measured by qRT-PCR method. The class given is functional, cell-based.
For experiment [8], the system named is Th17. In words: Inhibition of human Th17 cells differentiation in CD4+ve T cells assessed as decrease in IL-17A production at 2 uM measured by ELISA. The class given is functional, cell-based.
The test system of experiment [9] is Th17. In words: Inhibition of human Th17 cells differentiation in CD4+ve T cells assessed as decrease in IL-17A mRNA expression at 2 uM measured by qRT-PCR method. The class given is functional, cell-based.
For experiment [10], the system named is EL4. The experiment in a line: Downregulation ofp-STAT3 (Y705) expression in PMA/ionomycin-stimulated mouse EL4 cells measured by western blot analysis. The class given is functional, cell-based.

`O=S(=O)(c1ccccc1)N(CC(F)(F)F)c1ccc(C(O)(C(F)(F)F)C(F)(F)F)cc1` [T091317]: the inhibition (as a rule, how much of the control response was suppressed) at 20 µM in experiment [1] was determined as 52.7%.

`c1ccc2c(Cc3noc(CNC4CCC4)n3)c[nH]c2c1`: testing at 10 µM in experiment [2] gave an inhibition of 5.8%.

For `NC12CCC(c3nc(Cc4c[nH]c5ccccc45)no3)(CC1)C2`, the inhibition at 10 µM in experiment [2] worked out at 3%.

`N=C(N)NCCNc1ccc(-c2noc(Cc3c[nH]c4ccccc34)n2)cc1` gave an inhibition at 10 µM in [2] of 15.2%.

`CC(=O)NCCNc1ccc(-c2noc(Cc3c[nH]c4ccccc34)n2)cc1` registered an inhibition at 10 µM in experiment [2] of 31%.

Turning to `Nc1ccc(-c2noc(Cc3c[nH]c4ccccc34)n2)cc1`, in experiment [2], the inhibition at 10 µM came to 6.4%.

In experiment [2], `CN(C)CCNc1ccc(-c2noc(C34CC5CC(CC(C5)C3)C4)n2)cc1` returned an inhibition at 10 µM of 39.6%.

With `CN(C)CCNCc1nc(Cc2c[nH]c3ccccc23)no1`, the inhibition at 10 µM in experiment [2] came out at 6.1%.

On to `COc1cc(-c2nc(-c3ccc(NCCN(C)C)cc3)no2)cc(OC)c1OC`, for which the inhibition result in the experiment on EL4 [3] and in the experiment on EL4 [4] was “Dde” throughout. The inhibition entry in the experiment on EL4 [5] and in the experiment with EL4 [7] was “Active” in each case. 5.29 µM corresponded to half-maximal inhibition in [6] (IC50). In experiment [2], the inhibition at 10 µM is 83.5%.

On to `CN(C)CCNc1ccc(-c2noc(Cc3c[nH]c4ccccc34)n2)cc1`, for which the inhibition entry in the experiment on EL4 [3] and in the experiment with EL4 [4] was “Dde” throughout. The inhibition entry with Th17 [8], with EL4 [5], in the experiment on Th17 [9] and in the experiment with EL4 [7] was “Active” in each case. The IC50 (as a rule, the point on the concentration scale where inhibition reaches its midpoint) in [6] came to 7.73 µM. In the experiment with EL4 [10], the result was Active. Besides, the inhibition at 10 µM in experiment [2] came to 78.7%.

`NCCNc1ccc(-c2noc(Cc3c[nH]c4ccccc34)n2)cc1`: in experiment [2], at 10 µM the inhibition was 21.5%.

Turning to `CN(C)CCNc1ccc(-c2noc(-c3ccccc3)n2)cc1`, in experiment [1], testing at 20 µM gave an inhibition of 22.9%.

Regarding `CS(=O)(=O)c1ccc(CNc2ccc(-c3noc(Cc4c[nH]c5ccccc45)n3)cc2)cc1`, in experiment [2], 10 µM produced 10.3% inhibition.

For `CS(=O)(=O)c1ccc(CNC23CCC(c4nc(Cc5c[nH]c6ccccc56)no4)(CC2)C3)cc1`, the inhibition at 10 µM in [2] came to 8.1%.
